Measured values from paper PMC5816602, “Optimized peptide based inhibitors targeting the dihydrofolate reductase pathway in cancer” (Scientific Reports, 2018).
Converted amounts (≈) assume the structure as drawn. Where two headings read alike, the source gives them in different places. Residues, ends and D or L forms follow the SMILES beside them.

Assays:
hDHFR [1] = target: T1, hDHFR (Homo sapiens, UniProt P00374); assay: In vitro DHFR inhibition assay (DHFR assay kit, absorbance at 340 nm); format: biochemical
T1 construct: purchased Sigma CS0340
T1 sequence (P00374 1-187): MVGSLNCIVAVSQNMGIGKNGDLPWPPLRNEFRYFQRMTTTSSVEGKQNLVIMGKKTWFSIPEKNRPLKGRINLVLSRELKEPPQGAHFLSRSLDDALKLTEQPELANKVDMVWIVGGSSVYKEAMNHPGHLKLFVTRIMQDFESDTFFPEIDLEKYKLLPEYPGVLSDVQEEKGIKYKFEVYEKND
Description: The activity of the designed peptides against hDHFR was evaluated by measuring the conversion of dihydrofolic acid to tetrahydrofolic acid in the presence of the test peptide using […].
The dihydrofolate reductase inhibition assay was performed using DHFR assay kit (Sigma product code CS0340) according to the reported protocol. All the dilutions were made in assay buffer, pH 7.5. 10 mM stock solutions of dihydrofolic acid and NADPH in assay buffer were prepared. Stock solutions of the test peptides with different concentrations were prepared in DMSO, and an amount of 20 μL of each was taken to attain final concentration of 10^−9, 10^−8, 10^−7, 10^−6, 10^−5, and 10^−4 M in the respective wells of 96-well plate containing assay buffer. An amount of 0.1 unit of DHFR as supplied in the kit was diluted, and an amount of 20 μL of its 3 × 10^−3 unit was used in each reaction. Each well of the 96-well plate was charged with 157.8 μL of assay buffer. […] Percentage inhibition of enzymatic activity was calculated after nullifying the effects of NADPH, folate, and solvent. IC50 was calculated by plotting a graph between percentage inhibition and the corresponding concentration of the peptide.

A549 cells = details: 48 hrs, MTT; for effect on cell viability of A549 cells: increasing concentrations
Description: Cell viability was measured using 3-(4,5-Dimethylthiazol- 2-yl)-2,5- Diphenyltetrazolium Bromide (MTT) assay. […] Following that, 20 µL of 5 mg/ml of MTT reagent was added in a total volume of 200 µl and incubated for 2 hours. The culture media was removed and the formazan crystals so formed were dissolved in 200 µl of dimethyl sulfoxide (DMSO). Absorbance was measured at 570 nm (with 660 nm reference wavelength) using Tecan plate reader (Infinite M200 Pro). Each individual experiment was repeated at least thrice. Relative cell viability was expressed as a percentage relative to untreated control cells.

hDHFR [2] = target: T1, hDHFR; assay: Isothermal titration calorimetry (ITC); format: binding; details: Table 2, read-out: Ka (converted)
Source text: The binding of peptide 2 with hDHFR was further determined using isothermal titration calorimetry (ITC). ITC is considered as one of the most precise techniques to measure the affinity between a macromolecule and a small molecule. Since it measures the heat absorbed or released during complexation, it allows simultaneous determination of all binding parameters with respect to the binding constant (K), enthalpy (ΔH), and entropy (ΔS) in a single experiment. The solution of peptide 2 (in the syringe) was injected into the DHFR enzyme solution taken in the sample cell. In one experiment, 20 consecutive injections of 2 μL of 250 μM peptide were given to the sample cell. Upon each titration, the amount of heat released or absorbed was measured and used to determine the association constant (Ka), binding enthalpy (ΔH), and entropy (ΔS).

[3] = six concentrations 10^−4 to 10^−9 M, assay buffer pH 7.5, read-out: IC50 against hDHFR

Compound	IC50 (hDHFR [1]; [3]) [µM]	IC50 (hDHFR [1]) [µM]	further results
CSCC[C@H](NC(=O)[C@@H](N)Cc1ccccc1)C(=O)N[C@@H](Cc1ccc(O)cc1)C(=O)N[C@@H](CC(C)C)C(=O)NCC(=O)O [Peptide 8, Phe-Met-Tyr-Leu-Gly] (H-FMYLG-OH)	> 100		
CSCC[C@H](N)C(=O)N[C@@H](Cc1ccc(O)cc1)C(=O)N[C@@H](CO)C(=O)N[C@@H](CC(C)C)C(=O)O [Peptide 6, Met-Tyr-Ser-Leu] (H-MYSL-OH; N-terminus assumed)	8		
CSCC[C@H](N)C(=O)N[C@@H](Cc1ccccc1)C(=O)N[C@@H](Cc1ccc(O)cc1)C(=O)NCC(=O)O [Peptide 4, Met-Phe-Tyr-Gly] (H-MFYG-OH; N-terminus assumed)	> 90		effect on cell viability of A549 cells (A549 cells): did not affect their cell viability
CSCC[C@H](NC(=O)[C@@H](N)Cc1ccc(O)cc1)C(=O)N[C@@H](Cc1ccccc1)C(=O)N[C@@H](CO)C(=O)N[C@@H](CC(C)C)C(=O)O [Peptide 12, Tyr-Met-Phe-Ser-Leu] (H-YMFSL-OH)		> 90	
CSCC[C@H](NC(=O)[C@@H](N)Cc1ccc(O)cc1)C(=O)N[C@@H](CO)C(=O)N[C@@H](CC(C)C)C(=O)O [Peptide 5, Tyr-Met-Ser-Leu] (H-YMSL-OH; N-terminus assumed)		> 100	
CSCC[C@H](NC(=O)[C@H](Cc1ccccc1)NC(=O)[C@H](CO)NC(=O)[C@@H](N)Cc1ccc(O)cc1)C(=O)N[C@@H](CC(C)C)C(=O)O [Peptide 11, Tyr-Ser-Phe-Met-Leu] (H-YSFML-OH)		0.08	
CSCC[C@H](NC(=O)[C@H](Cc1ccccc1)NC(=O)[C@@H](N)Cc1ccc(O)cc1)C(=O)N[C@@H](CC(C)C)C(=O)O [Peptide 1, Tyr-Phe-Met-Leu] (H-YFML-OH; N-terminus assumed)		> 100	
CSCC[C@H](NC(=O)[C@H](Cc1ccc(O)cc1)NC(=O)[C@@H](N)Cc1ccccc1)C(=O)NCC(=O)O [Peptide 3, Phe-Tyr-Met-Gly] (H-FYMG-OH; N-terminus assumed)	5.6		effect on cell viability of A549 cells (A549 cells): did not affect their cell viability
CSCC[C@H](NC(=O)[C@H](Cc1ccccc1)NC(=O)[C@@H](N)Cc1ccc(O)cc1)C(=O)N[C@@H](CC(C)C)C(=O)NCC(=O)O [Peptide 7, Tyr-Phe-Met-Leu-Gly] (H-YFMLG-OH)		> 100	
CSCC[C@H](N)C(=O)N[C@@H](Cc1ccccc1)C(=O)N[C@@H](Cc1ccc(O)cc1)C(=O)NCC(=O)N[C@@H](CC(C)C)C(=O)O [Peptide 10, Met-Phe-Tyr-Gly-Leu] (H-MFYGL-OH)	> 100		
CSCC[C@H](NC(=O)[C@@H](N)Cc1ccccc1)C(=O)N[C@@H](Cc1ccc(O)cc1)C(=O)N[C@@H](CC(C)C)C(=O)O [Peptide 2, Phe-Met-Tyr-Leu] (H-FMYL-OH)	0.13		IC50 in A549 cells (A549 cells): 47 µg/mL (≈ 82.1 µM); IC50 (A549 cells; read-out: IC50 in A549 cells): 82 µM; Kd (hDHFR [2]): 0.909 µM
CSCC[C@H](NC(=O)[C@H](Cc1ccc(O)cc1)NC(=O)[C@@H](N)Cc1ccccc1)C(=O)NCC(=O)N[C@@H](CC(C)C)C(=O)O [Peptide 9, Phe-Tyr-Met-Gly-Leu] (H-FYMGL-OH)		> 80	
